Tests used:
[1] = tested on: flank organ hair growth; assay: Golden Syrian hamster assay (flank organ hair mass after topical treatment); format: in vivo; details: thirteen applications
Text: Male intact Golden Syrian hamsters are considered acceptable models for human beard hair growth in that they display oval shaped flank organs, one on each side, each about 8 mm in major diameter, which grow thick black and coarse hair similar to human beard hair. These organs produce hair in response to androgens in the hamster. To evaluate the effectiveness of a composition including a hair growth reducing compound, the flank organs of each of a group of hamsters are depilated by applying a thioglycolate based chemical depilatory (Surgex); alternatively, hair were removed by shaving the flank organs prior to topical treatments. To one organ of each animal 10 μl of vehicle alone once a day is applied, while to the other organ of each animal an equal amount of vehicle containing a hair growth reducing compound is applied. After thirteen applications (one application per day for five days a week), the flank organs are shaved and the amount of recovered hair (hair mass) from each is weighed. Percent-reduction of hair growth is calculated by subtracting the hair mass (mg) value of the test compound treated side from the hair mass value of the vehicle treated side; the delta value obtained is then divided by the hair mass value of the vehicle treated side, and the resultant number is multiplied by 100.
The above-described assay will be referred to herein as the "Golden Syrian hamster" assay. Preferred compositions provide an inhibition in hair growth of at least about 20%, more preferably at least about 40%, and most preferably at least about 60% when tested in the Golden Syrian hamster assay.

[2] = tested on: hair follicle phosphofructokinase; assay: Phosphofructokinase activity in hair follicle extracts; format: biochemical, hamster
Procedure: The activity of two target enzymes (phosphofructokinase and hexokinase) was determined in hair follicle extracts in the presence or absence of select enzyme inhibitors.
Measurement of Phosphofructokinase Activity in Hair Follicle Extracts
Hair follicles from hamster flank organs were excised and an enzyme extract was prepared in a buffered mixture containing 75 mM Tris-HCL, 3 mM MgCl2, and 15 mM (NH4)2 SO4, pH 7.5, using a sonication device. The follicle extracts were passed through a 10,000 molecular weight cut off filter by centrifugation at 12,000 x g. The unfiltered extract was transferred to another filter and a 100 ul aliquot of the magnesium buffer was added. The sample was centrifuged again under similar conditions. This procedure was repeated two additional times.
The washed extract was removed from the insert cup and assayed for phosphofructokinase activity according to the following procedure. The extract was mixed with a solution containing 2.0 ml of the magnesium buffer, 0.1 ml of fructose 6-phosphate (30 mM), 0.1 ml ATP (15 mM), 0.1 ml NADH (1.5 mM), 0.3 ml of mercatopethanol (0.1M), 0.3 ml an auxiliary enzyme mixture made up of aldose (10 units/ml), triosephosphate isomerase (8 units/ml), and α-glycerophosphate dehydrogenae (4 units/ml) in 25 mM Tris-HCI (pH 7.5). […] Change in absorbance at UV 340 nm was used to determine the enzyme activity.

[3] = tested on: hair follicle hexokinase; assay: Hexokinase activity in hair follicle extracts; format: biochemical, hamster; details: concentration of 1 mM
Procedure: Measurement of the Hexokinase Activity was Performed as Follows
The enzyme hexokinase was extracted from the hamster hair follicles in a buffer containing Tris-HCL (0.25M, pH 8.1), 1.5 mM EDTA and 5.0 mM MgCl2. The extract was prepared in a manner similar to as described above for phosphofructokinase. The following reagents were mixed together and the change in absorbance at 340 nm was monitored to determine enzyme activity--0.5 ml of the Tris buffer, 0.1 ml ATP (5 mM), 0.1 ml phospho(enol)pyruvate and NADH (0.75 mM and 0.2 mM respectively), 0.1 ml of the follicle extract.

[4] = 10% concentration in vehicle, topical 10 μl once a day, vehicle and pH per compound as in the Table
[5] = 10% concentration in vehicle, topical 10 μl once a day, vs vehicle treated side
[6] = 15.0% concentration, vehicle G pH 7.0, topical
[7] = 4.4% concentration, vehicle A pH 7.0, topical
[8] = 7.5% concentration, vehicle C pH 8.5, topical

Molecule | Hair Mass (mg) ± SEM, Treated [1, 4] | % Inhibition (hair growth) [1, 5] [%] | also measured
O=C(O)[C@H](O)COP(=O)(O)O [D(-)3-Phosphoglyceric acid] | 2.27 ± .22 mg | 21 ± 7 | –
O=C(O)COP(=O)(O)O [Phosphogylcolic acid] | 0.57 ± .09 mg | 66 ± 5 | inhibition of the hair follicle phosphofructokinase activity ([2]; concentration of 0.9 mM): 45%
N#CC(=Cc1ccc(O)cc1)C(=O)O [α-Cyano-4-hydroxycinnamic acid] | 0.87 ± .34 mg | 49 ± 17 | –
O=C(O)C(=O)CBr [Bromopyruvic acid] | 1.10 ± .11 mg | 58 ± 6 | –
6-Amino-6-deoxy glucose | 0.77 ± .15 mg | 59 ± 6 | inhibition of the hair follicle hexokinase activity [3]: 46%
N[C@@H]1C(O)O[C@H](CO)[C@@H](O)[C@@H]1O (some centres unmarked) [Mannosamine] | 0.71 ± .13 mg | 68 ± 6 | inhibition of the hair follicle hexokinase activity [3]: 100%
O=C(CCc1ccc(O)cc1)c1c(O)cc(O)cc1O [Phloretin] | – | – | % Inhibition (hair growth) [1, 6]: 35 ± 7%; Hair Mass (mg) ± SEM, Treated [1, 6]: 1.34 ± .11 mg
CCCCCCCCCCCCCCCCC(C(=O)O)C(O)(CC(=O)O)C(=O)O (centres unmarked) [Argaric acid] | 0.97 ± .14 mg | 52 ± 4 | inhibition of the hair follicle phosphofructokinase activity ([2]; concentration of 0.15 mM): 76%
O=C(O)c1ccc2ccccc2n1 [Quinaldic Acid] | 0.62 ± .08 mg | 69 ± 4 | –
O=C[C@H](O)[C@@H](O)[C@H](O)[C@H](S)CO [5-Thio-D-glucose] | 1.32 ± .20 mg | 49 ± 6 | –
O=C(O)C(=O)CF [3-Fluoropyruvic acid] | 1.14 ± .09 mg | 40 ± 5 | –
O=C(O)C(=O)Cc1ccccc1 [Phenylpyruvic acid] | 0.92 ± .21 mg | 54 ± 10 | –
O=C(O)C1(O)CC1 [1-Hydroxy-1-cyclopropanecarboxylic acid] | 1.80 ± .20 mg | 22 ± 9 | –
O=CC[C@@H](O)[C@H](O)[C@H](O)CO [2-Deoxyglucose] | 0.96 ± .16 mg | 38 ± 7 | –
Nc1ncnc2c1ncn2[C@@H]1O[C@H](COC(=O)c2ccc(S(=O)(=O)F)cc2)[C@@H](O)[C@H]1O [5'-p-Flurosuflonylbenzoyl adenosine] | – | – | % Inhibition (hair growth) [1, 7]: 60 ± 3%; Hair Mass (mg) ± SEM, Treated [1, 7]: 0.74 ± .05 mg
CC(=O)N[C@H]1[C@@H](O)[C@H](O)[C@@H](CO)O[C@H]1O [N-Acetyl-β-D-mannosamine] | 0.79 ± .15 mg | 65 ± 7 | inhibition of the hair follicle hexokinase activity [3]: 100%
O=C(O)c1cc(=O)c2ccccc2[nH]1 [Kynurenic acid] | 0.98 ± .09 mg | 64 ± 4 | –
Cc1ccc(S(=O)(=O)N[C@@H](CCCCN)C(=O)CCl)cc1 [N-α-(p-Tosyl)-L-lysine chloromethyl ketone] | 0.48 ± .11 mg | 81 ± 4 | inhibition of the hair follicle hexokinase activity [3]: 100%
O=C(O)c1cc(O)c2cccc(O)c2n1 [Xanthurenic acid] | – | – | % Inhibition (hair growth) [1, 8]: 59 ± 4%; Hair Mass (mg) ± SEM, Treated [1, 8]: 1.26 ± .13 mg
